In PMC3356383, “Efficacious Intermittent Dosing of a Novel JAK2 Inhibitor in Mouse Models of Polycythemia Vera” (PLoS ONE, 2012):

Biological target: T1, JAK3 (JH1) (Homo sapiens, UniProt P52333)
T1 construct: JAK3 (JH1)
Test: JAK3 enzyme assay, HTRF detection
Type: biochemical
Procedure: JAK1, JAK2, JAK3, and TYK2 kinase activity assays were performed as described previously using HTRF detection technology and the peptide substrate amino hexanoyl biotin-EQEDEPEGDYFEWLE-NH2. Each reaction was incubated between 60 and 80 min at room temperature. Final conditions were as follows: JAK1, 400 pM enzyme, Hepes pH 7.5, 10 mM MgCl2, 0.01% Brij-35, 1 mM EGTA, 0.1 mg/ml BSA), 2 mM DTT, 2 µM peptide substrate, 25 µM MgATP, 5% DMSO and the desired concentration of subject compound; JAK2, 25 pM enzyme (JH1, JH1–JH2^wt, JH1–JH2^V617F domains), 2 µM peptide substrate, 15 µM MgATP, 5 mM MgCl2, 100 mM NaCl, 2 mM DTT, 0.1 mg/ml BSA, 50 mM Tris (pH 7.4), 5% DMSO and the desired concentration of subject compound; JAK3, 250 pM enzyme, 50 mM Hepes pH 7.5, 10 mM MgCl2, 0.01% Brij-35, 1 mM EGTA, 0.1 mg/ml BSA), 2 mM DTT, 2.0 µM peptide substrate, 25 µM MgATP, 5% DMSO, and the desired concentration of subject compound; TYK2, 125 pM enzyme, 50 mM Hepes pH 7.5, 10 mM MgCl2, 0.01% Brij-35, 1 mM EGTA, 0.1 mg/ml BSA, 2 mM DTT, 2.0 µM peptide substrate, 15 µM MgATP, 5% DMSO and the desired concentration of subject compound.

T1 sequence (P52333 822-1111 limits assumed, species assumed): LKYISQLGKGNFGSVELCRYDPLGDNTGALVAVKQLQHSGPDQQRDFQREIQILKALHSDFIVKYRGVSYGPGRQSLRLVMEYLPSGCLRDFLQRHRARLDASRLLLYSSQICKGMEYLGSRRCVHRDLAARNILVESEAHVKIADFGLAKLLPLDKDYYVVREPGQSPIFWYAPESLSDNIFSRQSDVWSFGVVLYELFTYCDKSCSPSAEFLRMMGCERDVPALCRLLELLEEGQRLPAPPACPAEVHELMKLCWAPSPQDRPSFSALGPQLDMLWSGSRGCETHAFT

## NC(=O)c1cnc(N[C@H](C2CC2)C(F)(F)F)c2c1[nH]c1cc(-c3cnc(N)nc3)ccc12 [MRLB-11055]
HTRF, mean, n = 3, read-out: IC50, cell-free JAK3 (JH1)
  IC50: 0.3 µM
cell-free assays
  Selectivity for JAK2 over JAK3: > 3000 fold
